Measurements as given in patent US4806564A, “Antihypercholesterolemic beta-lactones” (Merck & Co., Inc., priority 1987, dated 1989).

The molecules below were run against T1, HMG-CoA synthase (Rattus norvegicus, UniProt P17425) (assay: HMG-CoA Synthase Inhibition Assay). Conditions: in vitro; HMG-CoA synthase purified from rat liver; 5 min preincubation with test compound at 30°, then 10 min with acetoacetyl-CoA and [14C]-acetyl-CoA.
T1 construct: The HMG-CoA synthase was eluted from the column with 0.1 M phosphate buffer (pH 7.2); from tissue; host or cells: liver of male Charles River CD rats
T1 sequence (P17425 1-520): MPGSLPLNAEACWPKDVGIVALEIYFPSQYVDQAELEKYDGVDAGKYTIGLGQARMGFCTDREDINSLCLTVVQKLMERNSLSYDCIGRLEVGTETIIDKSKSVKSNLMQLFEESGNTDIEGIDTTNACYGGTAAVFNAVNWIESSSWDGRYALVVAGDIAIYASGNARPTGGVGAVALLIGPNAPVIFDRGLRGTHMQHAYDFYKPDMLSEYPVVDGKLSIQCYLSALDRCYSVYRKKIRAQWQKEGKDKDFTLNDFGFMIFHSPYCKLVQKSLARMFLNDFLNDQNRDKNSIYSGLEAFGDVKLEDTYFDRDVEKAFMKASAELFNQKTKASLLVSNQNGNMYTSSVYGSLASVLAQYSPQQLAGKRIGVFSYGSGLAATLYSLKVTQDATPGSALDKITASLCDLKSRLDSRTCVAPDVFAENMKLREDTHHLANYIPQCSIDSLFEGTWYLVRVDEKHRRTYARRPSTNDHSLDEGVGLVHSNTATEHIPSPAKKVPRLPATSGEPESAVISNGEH
Format: biochemical
Method: The intrinsic HMG-CoA synthase inhibition activity of the compounds of this invention is measured by the standard in vitro protocol described below:
The livers from male Charles River CD rats (225-350 g) were homogenized in 0.25 M sucrose which was adjusted with phenylmethylsulfonylfluoride (PMSF) and N-p-tosyl-1-lysine chloromethyl ketone (TLCK) so that the final concentration of each was […], respectively. The homogenate was centrifuged at 15,000× g for 20 minutes, the supernatant filtered through a fine nylon screen to remove most of the fat layer and recentrifuged at 100,000× g for 1 hour. This supernatant was removed and 1 M potassium phosphate, dithiothreitol (DTT) and ethylene glycol-bis(β-aminoethyl ether)-N,N,N',N'-tetracetic acid (EGTA) added to give a final concentration of 0.1 M (pH 7.2), 0.5 mM and 0.1 mM, respectively. Solid ammonium sulfate was added to 50% saturation to the protein solution, it was centrifuged at 15,000× g and the supernatant discarded. This precipitated protein could be stored at -70° C. for at least one month with very little loss of activity. The ammonium sulfate precipitate was dissolved in an minimal mount of 0.06 M potassium phosphate buffer (pH 7.2) containing 0.5 mM dithiothreitol and 0.1 mM EGTA (referred to as 0.06 M phosphate buffer) and dialyzed overnight against 2 liters of the same buffer to remove the ammonium sulfate and to inactivate HMG-CoA lyase [Clinkenbeard, et al., J. Biol. Chem. 250, 3108-3116(1975)].
The dialyzed extract was added to a column of DEAE-52 (Whatman) which had been equilibrated with 0.06 M phosphate buffer (10 mg of protein to 1 ml bed volume of the resin). The DEAE-cellulose was eluted with 0.06 M phosphate buffer until the optical density at 280 nm was essentially zero. This fraction contained the β-ketoacetyl-CoA thiolase activity. The HMG-CoA synthase was eluted from the column with 0.1 M phosphate buffer (pH 7.2) containing 0.5 mM DTT and 0.1 mM EGTA, and was virtually free of all thiolase activity. The protein was precipitated by the addition of ammonium sulfate to give 50% saturation. This solution was stirred for 10 minutes at 4° C. and the precipitate collected by centrifugation at 15,000 rpm for 10 minutes. The supernatant was discarded and the precipitate dissolved in a minimum of 0.06 M phosphate buffer, pH 7.2 (about 10 ml) and the enzyme stored at -80° C.
Enzyme protein (ca. 24 mg) was added to a solution containing […] (pH 8.0), 11.7 μM MgCl2, 1.17 μM Ethylenediaminetetraacetic acid (EDTA), 0.58 μM dithiothreitol, and the indicated concentrations of the test compound (added as a 2 mg/ml solution in dimethylsulfoxide). The incubation took place in a volume of 0.085 ml at 30° in a shaking water bath. After 5 minutes, […] of a solution containing acetoacetyl-CoA and 0.1 μCi of 1-[^14 C]-acetyl-CoA was added to give a final concentrations of 0.1 and 0.4 μM, respectively. The incubation was continued for 10 more minutes and the reaction stopped by the addition of […] of the assay mixture to 0.2 ml of 6N HCl in a glass scintillation vial. The vial was heated for 1 hour at 120° after which time 0.2 ml more of 6N HCl was again added to each vial and the heating continued for another hour. Following this, 1.0 ml of 0.9% saline was added to each vial and finally 10 ml of scintillation liquid. Radioactivity was determined in a Packard Tri-Carb liquid scintillation counter.
Percent inhibition is calculated by the formula: [formula]
IC50 values were determined by plotting the log of the concentration of the test compound verses the percentage inhibition and fitting a straight line to the resulting data by using the least squares method.

| SMILES | IC50 |
| --- | --- |
| C[C@H]1C(=O)O[C@@H]1CCCCCc1ccccc1 (relative stereo) [(CH2)5Ph, E-3-Methyl-4-(5-phenylpentyl)-2-oxetanone] | 1400 nM |
| C=CCCCCCCCC[C@@H]1OC(=O)[C@H]1C (relative stereo) [(CH2)8 CHCH2, E-3-Methyl-4-(9-decenyl)-2-oxetanone] | 1600 nM |
| CCCCCCCCCC[C@@H]1OC(=O)[C@H]1C (relative stereo) [(CH2)9CH3, E-3-Methyl-4-decyl-2-oxetanone] | 250 nM |
| CC(=O)CC(C)CCCCC1OC(=O)C1CO (stereo not shown) [8-(3-hydroxymethyl-4-oxo-2-oxetanyl)-4-methyl-2-octanone] | 1600 nM |
| COCC1C(=O)OC1CCCCC(C)CC(C)OC (stereo not shown) [8-(3-methoxymethyl-4-oxo-2-oxetanyl)-4-methyl-2-methoxyoctane] | 5500 nM |
| COCC1C(=O)OC1CCCCC(C)CC(C)=O (stereo not shown) [8-(3-methoxymethyl-4-oxo-2-oxetanyl)-4-methyl-2-octanone] | 1700 nM |
| COC(=O)C=C(C)C1OC1(C)CC(C)CCCCC1OC(=O)C1CO (stereo not shown) [methyl 11-(3-hydroxymethyl-4-oxo-2-oxetanyl)-4,5-oxiranyl-3,5,7-trimethyl-2-undecenoate] | 80 nM |
| COCC1C(=O)OC1CCCCC(C)CC(C)(O)C(O)C(C)=CC(=O)OC (stereo not shown) [methyl 11-(3-methoxymethyl-4-oxo-2-oxetanyl)-4,5-dihydroxy-3,5,7-trimethyl-2-undecenoate] | 1900 nM |

The remaining molecules from weak to strong by IC50, led by results:

| IC50 | SMILES |
| --- | --- |
| 1500 nM | C[C@H]1C(=O)O[C@@H]1CCCCCCc1ccccc1 (relative stereo) [(CH2)6 Ph, E-3-Methyl-4-(6-phenylhexyl)-2-oxetanone] |
| 1200 nM | C[C@H]1C(=O)O[C@@H]1CCCCCCCCCc1ccccc1 (relative stereo) [(CH2)9 Ph, E-3-methyl-4-(9-phenylnonyl)-2-oxetanone] |
| 1100 nM | COC(=O)C=C(C)C(O)C(C)(O)CC(C)CCCCC1OC(=O)C1CO (stereo not shown) [methyl 11-(3-hydroxymethyl-4-oxo-2-oxetanyl)-4,5-dihydroxy-3,5,7-trimethyl-2-undecenoate] |
| 800 nM | CC(CC(C)CCCCC1OC(=O)C1CO)=NNc1ccc(Br)cc1 (stereo not shown) [8-(3-hydroxymethyl-4-oxo-2-oxetanyl)-4-methyl-2-(4-bromophenylhydrazono)-octane] |
| 100 nM | CC(=CC(=O)O)C1OC1(C)CC(C)CCCCC1OC(=O)C1CO (stereo not shown) [11-(3-hydroxymethyl-4-oxo-2-oxetanyl)-4,5-oxiranyl-3,5,7-trimethyl-2-undecenoic acid] |
